# Key:
# human CD8+ T cells = test: Human T cells stimulated with αCD3/αCD28 in presence of UA; type: cell-based
# Protocol: Splenic murine T cells were isolated from mice aged 6-20 weeks by negative selection with EasySep mouse T cell isolation kit (Stem cell) according to the manufacturer's instructions. To monitor T cell proliferation, purified T cells were loaded with CellTrace Violet (C34557 ThermoFisher Scientific). T cell activation was initiated using αCD3/CD28 activation beads (11456D; ThermoFisher Scientific) at a ratio of 25 μl dynabeads per 0.5×106 T-cells. Cells were activated with 25-50 μM Urolithin A (Tocris) or DMSO in T cell activation Medium (RPMI (ThermoFisher Scientific) 10% FBS (South America origin), 10 mM Hepes (Sigma), 1×Non-Essential Amino Acid, 1 mM Sodium Pyruvate, 50 µM β-Mercaptoethanol, 100 U/mL penicillin, 100 μg/mL streptomycin and 2 mM Glutamax (ThermoFisher Scientific) for the indicated durations. In selected experiments, cells were stimulated in the presence of inhibitors, namely TCFli (ICG-001; SelleckChem; […]) and PGC-lai (SR-18292, Sigma-Aldrich; […]). For subsequent analysis, activating beads were magnetically removed prior antibody staining. For human T cells, peripheral blood mononuclear cells were purified with a Ficoll-Paque (GE healthcare) gradient. T cells were enriched with EasySep Human T Cell Isolation Kit (StemCell) and activated with dynabead Human T-Activator CD3/CD28 for T Cell Expansion and Activation Kit (11131D; ThermoFisher Scientific), similar to murine T cell stimulation. When the subsequent activation and expansion of CAR T cells was studied, plates were coated with 1 μg/mL anti-human CD3 (αCD3; clone OKT3) and thawed PBMC were cultivated with […] anti-human CD28 (αCD28; 15E8, both Miltenyi Biotec) containing media for three days. (NutriT media (4Cell® Nutri-T media (Sartorius) containing 0.5% penicillin/streptomycin) supplemented with IL-7 (25 U/mL) and IL-15 […] (all Miltenyi Biotec)).
# Tumors were minced and digested with Tumor & Tissue Dissociation Reagent (BD Horizon) for 30 min. The remaining organ pieces were filtered through a 70 µm cell strainer. Cells were then washed with PBS 1% BSA and 2 mM EDTA. […]
# [1] = test system: CEA-CAR T cells / CEA-expressing human CRC organoids; test: CEA-CAR T cells exposed to UA and killing of human CRC organoids; type: cell-based
structure (smiles),measurement,setting,value
"O=c1oc2cc(O)ccc2c2ccc(O)cc12 [UA, Urolithin A]",TCF1 expression in human CD8+ T cells,human CD8+ T cells; after 48 hours,increased
same,mitochondrial membrane potential of human CD8+ T cells,human CD8+ T cells; after 48 hours,decreased
same,frequency of human TSCM cells (CD45RA+CCR7HiCD62L+CD95+CD8+),"human CD8+ T cells; five out of five individual donors, 48 h",increased the frequency
same,killing of CEA-expressing human CRC organoids,[1]; 72 h co-culture,comparable killing efficacy
same,CAR TSCM formation in CEA-specific CAR-T cells,[1]; UA applied to previously frozen CAR-T cells,strongly enhanced
